From ChEMBL document CHEMBL1201862, “PubChem BioAssay data set” (2004)
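Dose response: 5 concentrations. Exposure: 48 h. Format: 96-well plates. Endpoint: linear interpolation; highest concentration if not reached. Abbreviation: GI50, concentration required for 50% inhibition of growth.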 Calls of active or inactive are those of the source. Cut-off read from the data, not from the text of the source: active = GI50 up to about 1.1 µM and inactive = higher.

Tests used:
Test in all cases: DTP human tumour cell line panel, 48 h
SN12C = system: SN12C
SF-539 = system: SF-539
CAKI-1 = system: CAKI-1
HT-29 = system: HT-29
HL-60 = system: HL-60
TK-10 = system: TK-10
HOP-62 = system: HOP-62
SK-MEL-28 = system: SK-MEL-28
OVCAR-3 = system: OVCAR-3
ACHN = system: ACHN
SNB-78 = system: SNB-78
A549 = system: A549
RXF 393 = system: RXF 393
SNB-19 = system: SNB-19
K562 = system: K562
HCT-116 = system: HCT-116
SK-OV-3 = system: SK-OV-3

Row | Compound | GI50 (SN12C) | GI50 (SF-539) | GI50 (CAKI-1) | GI50 (HT-29) | GI50 (HL-60) | GI50 (TK-10) | GI50 (HOP-62) | GI50 (SK-MEL-28) | GI50 (OVCAR-3) | GI50 (ACHN) | GI50 (SNB-78) | GI50 (A549) | GI50 (RXF 393) | GI50 (SNB-19) | GI50 (K562) | GI50 (HCT-116) | GI50 (SK-OV-3)
1 | CC(=O)OC1OC2C(NC(=O)OC(C)(C)C)C1CC2(OCc1ccccc1)OCc1ccccc1 (stereo unspecified) | 27.2 µM (inactive) | 18.1 µM (inactive) | 32.4 µM (inactive) | 33.7 µM (inactive) | 12.8 µM (inactive) | 17 µM (inactive) | 28.2 µM (inactive) | 20.9 µM (inactive) | 16.5 µM (inactive) | 22.4 µM (inactive) | 37.6 µM (inactive) | 36.5 µM (inactive) | 14.2 µM (inactive) | 45.1 µM (inactive) | 17 µM (inactive) | 16.7 µM (inactive) | 28.3 µM (inactive)
2 | Cc1cc2nc3c(C(OC4OC(CO)C(O)C(O)C4O)C(O)CO)nn(-c4ccc(F)cc4)c3nc2cc1C (stereo unspecified) | > 100 µM (inactive) | > 100 µM (inactive) | – | > 100 µM (inactive) | – | > 100 µM (inactive) | > 100 µM (inactive) | > 100 µM (inactive) | > 100 µM (inactive) | > 100 µM (inactive) | > 100 µM (inactive) | – | > 100 µM (inactive) | > 100 µM (inactive) | > 100 µM (inactive) | > 100 µM (inactive) | > 100 µM (inactive)
3 | CCOC(=O)C(=O)Nc1c(C)cccc1C | > 100 µM (inactive) | > 100 µM (inactive) | > 100 µM (inactive) | > 100 µM (inactive) | – | > 100 µM (inactive) | > 100 µM (inactive) | > 100 µM (inactive) | > 100 µM (inactive) | > 100 µM (inactive) | > 100 µM (inactive) | > 100 µM (inactive) | > 100 µM (inactive) | > 100 µM (inactive) | – | > 100 µM (inactive) | > 100 µM (inactive)
4 | Cc1n[nH]c(=S)n(C)c1=S | > 100 µM (inactive) | > 100 µM (inactive) | – | – | – | > 100 µM (inactive) | > 100 µM (inactive) | > 100 µM (inactive) | > 100 µM (inactive) | > 100 µM (inactive) | > 100 µM (inactive) | > 100 µM (inactive) | > 100 µM (inactive) | > 100 µM (inactive) | > 100 µM (inactive) | > 100 µM (inactive) | > 100 µM (inactive)
5 | C[C@@]1(O)CC[C@]2(C)C3CCCC3[C@H]12 (stereo partly specified) | > 100 µM (inactive) | > 100 µM (inactive) | > 100 µM (inactive) | > 100 µM (inactive) | > 100 µM (inactive) | > 100 µM (inactive) | > 100 µM (inactive) | > 100 µM (inactive) | > 100 µM (inactive) | > 100 µM (inactive) | > 100 µM (inactive) | > 100 µM (inactive) | > 100 µM (inactive) | > 100 µM (inactive) | > 100 µM (inactive) | > 100 µM (inactive) | > 100 µM (inactive)
6 | COc1ccccc1C12OC(=O)C1(C)Oc1ccccc1C2=O (stereo unspecified) | > 100 µM (inactive) | > 100 µM (inactive) | – | > 100 µM (inactive) | > 100 µM (inactive) | > 100 µM (inactive) | > 100 µM (inactive) | > 100 µM (inactive) | > 100 µM (inactive) | > 100 µM (inactive) | > 100 µM (inactive) | > 100 µM (inactive) | > 100 µM (inactive) | > 100 µM (inactive) | > 100 µM (inactive) | > 100 µM (inactive) | > 100 µM (inactive)
7 | Cc1cc([N+](=O)[O-])ccc1Sc1c2ccccc2nc2cc(Cl)ccc12 | 30.8 µM (inactive) | 25.9 µM (inactive) | 26.2 µM (inactive) | – | 5.78 µM (inactive) | 55.6 µM (inactive) | 73.5 µM (inactive) | > 100 µM (inactive) | 28.3 µM (inactive) | 44.9 µM (inactive) | 41.3 µM (inactive) | 46.5 µM (inactive) | 84.5 µM (inactive) | 41.3 µM (inactive) | 36.1 µM (inactive) | 28.1 µM (inactive) | 47.2 µM (inactive)
8 | CC1=C(C(=O)CC(=O)C(=O)Nc2ccccc2C)Sc2ccccc2N1 | > 100 µM (inactive) | > 93.3 µM (inactive) | > 100 µM (inactive) | > 100 µM (inactive) | > 60.5 µM (inactive) | > 100 µM (inactive) | > 100 µM (inactive) | > 100 µM (inactive) | > 100 µM (inactive) | > 100 µM (inactive) | > 100 µM (inactive) | > 69.3 µM (inactive) | > 57.4 µM (inactive) | > 100 µM (inactive) | > 56.9 µM (inactive) | > 40.6 µM (inactive) | > 100 µM (inactive)
9 | FC(F)(F)c1ccc(C2SCc3nc4ccccc4n32)cc1 (stereo unspecified) | > 100 µM (inactive) | > 100 µM (inactive) | > 10 µM (inactive) | > 100 µM (inactive) | 3.13 µM (inactive) | > 100 µM (inactive) | – | > 100 µM (inactive) | > 10 µM (inactive) | 39.2 µM (inactive) | > 100 µM (inactive) | 41.8 µM (inactive) | 97.5 µM (inactive) | > 100 µM (inactive) | 3.75 µM (inactive) | 27.9 µM (inactive) | 18.2 µM (inactive)
10 | CN(C)C(=S)/N=c1\ssc(=S)n1Cc1ccncc1 | > 100 µM (inactive) | 21.2 µM (inactive) | 18.9 µM (inactive) | – | – | 25 µM (inactive) | 24.9 µM (inactive) | 35.1 µM (inactive) | 13.3 µM (inactive) | 29.8 µM (inactive) | > 100 µM (inactive) | 33.3 µM (inactive) | 25.5 µM (inactive) | 29.2 µM (inactive) | 18.3 µM (inactive) | 18.3 µM (inactive) | 25.2 µM (inactive)
11 | COc1cc([C@@H]2c3cc4c(cc3[C@@H](NC(=O)c3ccc([N+](=O)[O-])cc3)C3COC(=O)[C@@H]32)OCO4)cc(OC)c1O (stereo partly specified) | 0.215 µM (active) | 0.275 µM (active) | 0.569 µM (active) | 1.58 µM (inactive) | 0.0432 µM (active) | 2.03 µM (inactive) | 0.128 µM (active) | 1.97 µM (inactive) | 1.76 µM (inactive) | 0.194 µM (active) | 1.92 µM (inactive) | 0.0189 µM (active) | 2.55 µM (inactive) | 0.315 µM (active) | 0.889 µM (active) | 0.678 µM (active) | 0.334 µM (active)
12 | O=C(c1ccccc1)C1(Br)S(=O)(=O)OCCOS1(=O)=O | > 100 µM (inactive) | > 100 µM (inactive) | – | > 100 µM (inactive) | > 100 µM (inactive) | > 100 µM (inactive) | > 100 µM (inactive) | > 100 µM (inactive) | > 100 µM (inactive) | > 100 µM (inactive) | > 100 µM (inactive) | > 100 µM (inactive) | > 100 µM (inactive) | > 100 µM (inactive) | > 100 µM (inactive) | > 100 µM (inactive) | > 100 µM (inactive)
13 | CN(C)C(=S)/N=c1\ss/c(=N\c2ccccc2)n1-c1ccccc1 | 49.5 µM (inactive) | 16.3 µM (inactive) | 34.3 µM (inactive) | 0.154 µM (active) | 24.6 µM (inactive) | 25.8 µM (inactive) | 27.2 µM (inactive) | 29 µM (inactive) | 13.7 µM (inactive) | 25.2 µM (inactive) | 20.7 µM (inactive) | 25.6 µM (inactive) | 16.3 µM (inactive) | – | 11.2 µM (inactive) | – | 40.6 µM (inactive)
14 | O=C(NCCNCCO)c1cccc2ccc(-c3ccccc3)nc12 | 3.97 µM (inactive) | 3.63 µM (inactive) | 3.38 µM (inactive) | 4.13 µM (inactive) | 3.17 µM (inactive) | 1.44 µM (inactive) | 10.3 µM (inactive) | 10.4 µM (inactive) | 7.66 µM (inactive) | 2.26 µM (inactive) | 9.25 µM (inactive) | 2.93 µM (inactive) | 3.98 µM (inactive) | 6.49 µM (inactive) | 5.97 µM (inactive) | 2.73 µM (inactive) | 8.13 µM (inactive)
15 | O=C(NC1C2CC3CC(C2)CC1C3)/C(Cl)=C1/Sc2ccccc2NC1=O (stereo unspecified) | > 100 µM (inactive) | > 100 µM (inactive) | > 100 µM (inactive) | > 100 µM (inactive) | 62.2 µM (inactive) | > 64.6 µM (inactive) | > 100 µM (inactive) | > 100 µM (inactive) | > 100 µM (inactive) | > 95.9 µM (inactive) | > 100 µM (inactive) | > 100 µM (inactive) | > 100 µM (inactive) | > 100 µM (inactive) | 29.6 µM (inactive) | > 83.6 µM (inactive) | –
16 | OC1OCC(COc2cc(Cl)c(Cl)cc2Cl)OC1O (stereo unspecified) | 38.2 µM (inactive) | 39.4 µM (inactive) | 33.1 µM (inactive) | 65.8 µM (inactive) | 26.2 µM (inactive) | > 100 µM (inactive) | 76.7 µM (inactive) | 65.3 µM (inactive) | 25.5 µM (inactive) | 25.3 µM (inactive) | 22.7 µM (inactive) | 55 µM (inactive) | – | 33 µM (inactive) | 33.6 µM (inactive) | 18.9 µM (inactive) | 88.1 µM (inactive)
17 | COc1cc(/C=C/c2ccc(OC)c(O)c2)cc(OC)c1 | 8.51 µM (inactive) | 2.39 µM (inactive) | 25.5 µM (inactive) | 16.7 µM (inactive) | 1.75 µM (inactive) | 37.3 µM (inactive) | 4.2 µM (inactive) | 6.08 µM (inactive) | 2.16 µM (inactive) | 7.52 µM (inactive) | 5.64 µM (inactive) | 4.82 µM (inactive) | 1.25 µM (inactive) | 3.87 µM (inactive) | 2.43 µM (inactive) | 3.4 µM (inactive) | 36.1 µM (inactive)
